We go through twelve compounds from ChEMBL document CHEMBL3745712, “Identification of N-(4-((1R,3S,5S)-3-Amino-5-methylcyclohexyl)pyridin-3-yl)-6-(2,6-difluorophenyl)-5-fluoropicolinamide (PIM447), a Potent and Selective Proviral Insertion Site of Moloney Murine Leukemia (PIM) 1, 2, and 3 Kinase Inhibitor in Clinical Trials for Hematological Malignancies” (J Med Chem, 2015).

The nature of series [1]: cells. As to conditions: Homo sapiens, KMS-11, 72 h. It is filed as functional, cell-based.
Description: Antiproliferative activity against luciferase expressing human KMS11 cells after 72 hrs by Cell-TiterGlo assay
Series [2] can be described thus: in vitro. The conditions noted are these: rat, microsomes.
A short description of series [3]: in vitro. As to conditions: human, microsomes.
Series [4] can be described thus: in vitro. The conditions noted are these: human, microsomes. This is another data set of the same source.
Series [5] is described as follows: in vitro. The conditions noted are these: rat, microsomes. The source holds these as a separate data set.
Series [6] has as its target Serine/threonine-protein kinase pim-3 (Homo sapiens, UniProt Q86V86).
Series [7] is described as follows: cells. It is filed as cell-based, KMS11. The conditions noted are these: Homo sapiens, KMS-11, 1 h.
In series [8] the target is Serine/threonine-protein kinase pim-1 (Homo sapiens, UniProt P11309).
Serine/threonine-protein kinase pim-1, sequence (P11309 whole entry): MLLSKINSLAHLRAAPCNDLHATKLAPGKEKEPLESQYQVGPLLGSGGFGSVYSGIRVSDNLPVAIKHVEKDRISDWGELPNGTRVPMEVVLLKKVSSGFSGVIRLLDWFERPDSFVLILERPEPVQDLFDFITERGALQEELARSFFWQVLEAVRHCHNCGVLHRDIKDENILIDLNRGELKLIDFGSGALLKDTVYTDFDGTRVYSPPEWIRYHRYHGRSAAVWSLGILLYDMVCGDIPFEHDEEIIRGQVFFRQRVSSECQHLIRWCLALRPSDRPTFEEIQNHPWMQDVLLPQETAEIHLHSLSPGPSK

Where only a bound is given, the exact number is not on record here.

In general, EC50 refers to the concentration giving half of the maximal effect. A high value points to weaker potency. As usually defined, the half-life is the time needed for the level to fall by half in the phase considered. Read a high half-life as slow loss. As usually defined, the Ki is a dissociation constant, usually derived from enzyme kinetics or from competition with a known ligand. Low values mean tighter binding, high ones weaker binding.

As to `C[C@@H]1C[C@H](N)CN(c2ccncc2NC(=O)c2csc(-c3c(F)cccc3F)n2)C1`, in series [1], the midpoint of the response, the EC50, lay at 390 nM. Besides, the CLhep predicted at 0.5 h, 1 µM in series [2] was 47 mL/min/kg; in series [4], 13 mL/min/kg. Further, the half-life at 0.5 h, 1 µM came to 49 min in series [3] and 9 min in series [5].

In the case of `C[C@@H]1C[C@H](N)CN(c2ccncc2NC(=O)c2ccc(F)c(-c3ccccc3F)n2)C1`, the CLhep predicted at 0.5 h, 1 µM in series [2] is 45 mL/min/kg; in series [4] it was 18 mL/min/kg. In addition, the results for the half-life at 0.5 h, 1 µM in series [3] and in series [5] were 13 min and 11 min, respectively. Also, in series [6], the Ki was less than 3 nM.

In the case of `C[C@@H]1C[C@H](N)C[C@H](c2ccncc2NC(=O)c2csc(-c3c(F)cccc3F)n2)C1`, the values for the EC50 in series [1] and in series [7] were 910 nM and 320 nM, respectively. The figures for the CLhep predicted at 0.5 h, 1 µM in series [2] and in series [4] were 24 mL/min/kg and less than 6 mL/min/kg, respectively. Also, the half-life at 0.5 h, 1 µM in series [3] was more than 180 min; in series [5], 65 min. In addition, the Ki was less than 1 nM in series [8] and 4 nM in series [6].

Take `Nc1ccc(C2CCCCC2)nc1C(=O)Nc1cnccc1N1CCC[C@H](N)C1`: the CLhep predicted at 0.5 h, 1 µM is 52 mL/min/kg in series [2] and 18 mL/min/kg in series [4]. The half-life at 0.5 h, 1 µM is 14 min in series [3] and 3 min in series [5]. Also, the inhibition constant Ki was less than 1 nM in series [8] and 3 nM in series [6].

Consider `C[C@@H]1C[C@H](N)CN(c2ccncc2NC(=O)c2ccc(F)c(-c3c(F)cccc3F)n2)C1`, for which the results for the CLhep predicted at 0.5 h, 1 µM in series [2] and in series [4] were 40 mL/min/kg and 14 mL/min/kg, respectively. The half-life at 0.5 h, 1 µM in series [3] amounted to 40 min; in series [5] it was 20 min.

As for `N[C@@H]1CCCN(c2c(/C=C3\SC(=O)NC3=O)cccc2-c2ccccc2)C1`, in series [1], a half-maximal effect (EC50) was put at 670 nM.

The compound `N[C@H]1CCCN(c2ccncc2NC(=O)c2ccc(F)c(-c3c(F)cccc3F)n2)C1` returned an EC50 in series [1] of 1400 nM. Also, the figures for the CLhep predicted at 0.5 h, 1 µM in series [2] and in series [4] were 44 mL/min/kg and 16 mL/min/kg, respectively. The half-life at 0.5 h, 1 µM turned out to be 25 min in series [3] and 13 min in series [5]. Also, the Ki in series [8] was less than 1 nM; in series [6], less than 3 nM.

Regarding `N[C@H]1CCCN(c2ccncc2NC(=O)c2csc(-c3c(F)cccc3F)n2)C1`, the response in series [1] was half-maximal at 1200 nM (EC50). The CLhep predicted at 0.5 h, 1 µM in series [2] was 49 mL/min/kg; in series [4] it was 11 mL/min/kg. Moreover, the half-life at 0.5 h, 1 µM turned out to be 70 min in series [3] and 6 min in series [5].

In turn, `N[C@H]1CCC[C@@H](c2ccncc2NC(=O)c2csc(-c3c(F)cccc3F)n2)C1` had an EC50 in series [1] of 5000 nM. The CLhep predicted at 0.5 h, 1 µM is 21 mL/min/kg in series [2] and 8 mL/min/kg in series [4]. Moreover, the half-life at 0.5 h, 1 µM was determined as 121 min in series [3] and 85 min in series [5].

Consider `C[C@@H]1C[C@H](N)C[C@H](c2ccncc2NC(=O)c2ccc(F)c(-c3ccccc3F)n2)C1`, for which the half-life at 0.5 h, 1 µM was more than 180 min in series [3] and 92 min in series [5]. Besides, the CLhep predicted at 0.5 h, 1 µM in series [4] is less than 6 mL/min/kg.

Turning to `Nc1ccc(C2CCCCC2)nc1C(=O)Nc1cnccc1[C@@H]1CCC[C@H](N)C1`, the half-life at 0.5 h, 1 µM worked out at 85 min in series [3] and 8 min in series [5]. Besides, in series [4], the CLhep predicted at 0.5 h, 1 µM is 10 mL/min/kg.

In series [1], `CN1CCC(CNc2ccc3ncc(-c4cccc(OC(F)(F)F)c4)n3n2)CC1` [SGI-1776] displayed an EC50 of 5000 nM.
